In brackets after ≈: the same amount, converted by molar mass. Entries after “also recorded” stand apart in the source; their conditions may differ. Like-named read-outs stand apart in the source and are kept apart here.
Key:
[1] = tested on: lipid peroxidation in HT-1080 cells; experiment: C11-BODIPY lipid peroxidation flow cytometry assay; type: cell-based, human
[2] = molecular target: T1, GPX4 (Homo sapiens, UniProt P36969); experiment: GPX4 activity assay in cell lysates (NADPH-coupled); type: biochemical; set-up: endogenous in cells; host or cells: A-673 cell lysate; conditions: for IC50: mean±SD, n=3 (FIG. 84E), read-out: IC50 in the in vitro GPX4 activity assay
T1 sequence (P36969 1-170 isoform P36969-2): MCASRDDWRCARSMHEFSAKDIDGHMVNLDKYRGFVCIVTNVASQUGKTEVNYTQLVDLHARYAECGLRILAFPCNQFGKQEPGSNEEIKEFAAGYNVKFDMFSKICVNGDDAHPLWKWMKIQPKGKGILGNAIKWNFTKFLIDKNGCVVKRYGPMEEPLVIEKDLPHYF
Outline: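 Native GPX4 in lysates of A-673 cells grown with 20 nM sodium selenite; lysate preincubated with compound 45 min at 37 °C in pH 8.0 buffer with 3 mM GSH, 0.5 mM NADPH and glutathione reductase. Reaction started with phosphatidylcholine hydroperoxide; NADPH consumption followed at 340 nm over 25 min; triplicates.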

[3] = tested on: Huh7 cells; experiment: Cellular dose response assay, Huh7; type: cell-based, human
Excerpt: HT-1080 (human [Homo sapiens] […] fibrosarcoma), A-673 (human [Homo sapiens] […] Ewing's sarcoma), and SK-HEP-1 (human [Homo sapiens] […] hepatic adenocarcinoma), cells were obtained from ATCC. Huh7 (human [Homo sapiens] […] hepatocellular carcinoma), HLF (human [Homo sapiens] […] hepatocellular carcinoma), HepG2 (human [Homo sapiens] […] hepatocellular carcinoma), cells were obtained from the Cancer Cell Bank at Columbia University Irving Medical Center. HT-1080, A-673, Huh-7, and HLF cells were grown in Dulbecco's Modified Eagle Medium (DMEM) supplemented with 10% heat inactivated fetal bovine serum (HI-FBS), 1% non-essential amino acids, and 1% penicillin streptomycin. HepG2 and SK-HEP-1 cells were grown in Eagle's Minimum Essential Medium (EMEM) supplemented with 10% HI-FBS, and 1% penicillin-streptomycin. All cells were cultured at 37° C. and 5% CO2.
HT-1080, HepG2, Huh7, HLF, and SK-HEP-1 cells were seeded into opaque white 384-well plates at 1500 cells per well then incubated at 37° C. with 5% CO2 overnight. The next day, compounds of interest were dissolved in DMSO and 12-point 2-fold dilution series were prepared with and without Fer-1. Cells were treated in triplicate (final DMSO concentration of 0.4% in all wells, including DMSO-only control wells) and incubated for a further 48 hours at 37° C. and 5% CO2. Cell viability was evaluated using CellTiter-Glo (Promega G7573) and luminescence was recorded on a Victor 5 plate reader. Data were analyzed in GraphPad Prism 9 and error bars represent standard deviation values for three technical replicates in a representative experiment.

[4] = in vitro; type: in vitro ADME, mouse; conditions: mouse, microsomes
Method: (§1) […]. The incubation timepoints measured were 0, 5, 10, 15, 30, and 45 minutes. All samples were prepared in duplicate and analyzed by LC-MS/MS.

[5] = Kinetic aqueous solubility
[6] = in vitro; type: in vitro ADME, human; conditions: human, microsomes
Method: as §1

[7] = tested on: DTP cells derived from PC9; experiment: Drug-tolerant persister cell model, DTP cells; conditions: for % Viability Persister: 48 hours; for viability at 10 µM: Homo sapiens
[8] = tested on: SU-DHL-6; experiment: Cytotoxicity in DLBCL cells, SU-DHL-6; type: cell-based, human; conditions: for IC50: SU-DHL-6
[9] = tested on: U-2932; experiment: Cytotoxicity in DLBCL cells, U-2932; type: cell-based, human; conditions: for IC50: U-2932
[10] = tested on: SU-DHL-5; experiment: Cytotoxicity in DLBCL cells, SU-DHL-5; type: cell-based, human; conditions: for IC50: SU-DHL-5
[11] = HT-1080 cells, with and without fer-1
[12] = 200 μM, generation 1, mean ± s.d., n = 3
[13] = compounds alone, Table 4, read-out: IC50 (uM) Huh7^a
[14] = with fer-1, Table 4, read-out: IC50 (uM) Huh7^b
[15] = Fer-1 1.0 μM, read-out: IC50 (μM) with Fer-1

| GPX4% inhibition at 200 (μM) [2, 12] [%] | IC50 [3, 13] [µM] | IC50 [3, 14] [µM] | GPX4% inhibition at 20 (μM) ([2]; generation 1) [%] | GPX4% inhibition at 50 (μM) ([2]; 50 μM, generation 1) [%] | GPX4% inhibition at 100 (μM) ([2]; generation 1) [%] | Microsome Stability t1/2 (min) mouse [4] [min] | Solubility ([5]; aqueous solubility, Table 9) [µM] | Microsome Stability t1/2 (min) human [6] [min] | SMILES | lipid peroxidation (C11-BODIPY), result in words [1, 11] | GPX4 inhibition ([2]; 200 μM) | selectivity for DTPs vs PC9 parental cells, result in words [7] | % Viability Persister ([7]; dose 1.0 μM) [%] | % Viability Persister ([7]; dose 10.0 μM) [%] | IC50 [2] [µM] | further results |
| --- | --- | --- | --- | --- | --- | --- | --- | --- | --- | --- | --- | --- | --- | --- | --- | --- |
| −3.3 ± 45.3 | 98.7 | 113 | – | – | – | – | – | – | CC(C)(COC(=O)CCl)NC(=O)c1cc2ccccc2[nH]1 [QW-147] | – | complete loss in potency of inhibitory activity | – | – | – | – | – |
| 87.3 ± 34.6 | 15.8 | 55 | 66.7 ± 1.4 | 79.2 ± 5.8 | 62.7 ± 10.9 | – | – | – | CC(C)(COC(=O)CCl)NC(=O)c1cc2cc([N+](=O)[O-])ccc2[nH]1 [QW-148] | – | – | – | – | – | – | – |
| 170.3 ± 33.5 | 17.8 | 55.4 | 61.2 ± 0.5 | 98.6 ± 4.1 | 95.5 ± 6.2 | >1000 | 23 (≈ 8.92 µg/mL) | >1000 | CC(C)(COC(=O)CCl)NC(=O)c1cc2ccc(Br)cc2[nH]1 [QW-156] | induced fer-1 rescuable increases in lipid peroxidation | complete inhibition | no selectivity for DTP cells over PC9 cells at most concentrations tested | 122.00 | 73.25 | – | GPX4 inhibition ([2]; 50 μM): complete GPX4 inhibition; % Viability Persister ([7]; dose 25.0 μM): 24.50%; % Viability Persister ([7]; dose 50.0 μM): 2.50% |

Continued, molecule first:

| SMILES | GPX4% inhibition at 200 (μM) [2, 12] [%] | IC50 [3, 13] [µM] | IC50 [3, 14] [µM] | GPX4% inhibition at 20 (μM) ([2]; generation 1) [%] | GPX4% inhibition at 50 (μM) ([2]; 50 μM, generation 1) [%] | GPX4% inhibition at 100 (μM) ([2]; generation 1) [%] | Microsome Stability t1/2 (min) mouse [4] [min] | Solubility ([5]; aqueous solubility, Table 9) [µM] | Microsome Stability t1/2 (min) human [6] [min] | lipid peroxidation (C11-BODIPY), result in words [1, 11] | GPX4 inhibition ([2]; 200 μM) | selectivity for DTPs vs PC9 parental cells, result in words [7] | % Viability Persister ([7]; dose 1.0 μM) [%] | % Viability Persister ([7]; dose 10.0 μM) [%] | IC50 [2] [µM] | further results |
| --- | --- | --- | --- | --- | --- | --- | --- | --- | --- | --- | --- | --- | --- | --- | --- | --- |
| COc1cccc2[nH]c(C(=O)n3ccnc3)cc12 [LOC1886, reference compound] | – | – | – | – | – | – | – | – | – | induces lipid peroxidation in cells | – | – | – | – | – | inhibition at 200 µM ([2]; 200 μM, mean ± s.d., n = 3, read-out: GPX4% inhibition at 200): 31.9 ± 6% |
| COc1ccc2cc(C(=O)NC(C)(C)COC(=O)CCl)[nH]c2c1 [QW-152] | 150.4 ± 20.3 | 59.6 | 110 | 27.9 ± 5.5 | 56.0 ± 6.2 | 70.5 ± 9.2 | 0.9 | 88 (≈ 29.8 µg/mL) | 1.5 | – | complete inhibition | – | – | – | – | GPX4 inhibition ([2]; 50 μM): approximately 60% |
| Cn1nc(C(=O)NC(C)(C)COC(=O)CCl)c2ccc(Br)cc21 [QW-314] | – | – | – | – | – | – | – | – | – | – | complete inhibition | selective lethality in DTPs vs PC9 parental cells; also recorded: preferential induction of significantly more cell death in the DTP cells compared to the parental cells | – | – | 5.8 | half-life at 1 μM ([4]; pH 7.4): 5.3 min; lipid peroxidation (C11-BODIPY), result in words [1]: increased lipid peroxidation that is rescuable by ferrostatin-1; GPX4 inhibition ([2]; 20 µM): complete inhibition in the assay even at 20 μM; inhibition at 20 µM ([2]; read-out: GPX4% inhibition at 20 (μM)): 108 ± 5.3%; inhibition at 200 µM ([2]; read-out: GPX4% inhibition at 200 (μM)): 93.1 ± 6%; viability at 10 µM ([7]; 48 h, read-out: % Viability Persister): 22%; viability at 10 µM ([7]; read-out: % Viability Persister + 2 μM Fer-1): 73%; solubility at 1 h ([5]; phosphate buffered saline, pH 7.4, aqueous buffer, kinetic from dmso stock): 61 µM (≈ 24.6 µg/mL); half-life at 1 μM ([6]; pH 7.4): 6 min; times less potent than RSL3 in cells [3]: approximately 10 times; GI50 ([3]; Homo sapiens, Huh-7): ~1 µM; IC50 ([3]; Homo sapiens, Huh-7, read-out: IC50 (uM) Huh7^a): 1.8 µM; IC50 ([3]; Homo sapiens, Huh-7, read-out: IC50 (uM) Huh7^b): 92.9 µM |
| COc1ccc(-c2ccc3c(C(=O)NC(C)(C)COC(=O)CCl)nn(C)c3c2)cc1Cl [QW-446] | – | – | – | – | – | – | 1.2 | >1000 | 1.6 | induced fer-1 rescuable increases in lipid peroxidation | – | show DTP selectivity relative to PC9 parental cells; also recorded: selective and similar or stronger cytotoxicity to DTP cells | – | 26.50 | 0.49 | GPX4 inhibitory activity, result in words [2]: greater GPX4 inhibitory activity than QW-314 at 5 μM; GPX4% inhibition at 2.5 μM [2]: 79.1 ± 4.4%; GPX4% inhibition at 5 μM ([2]; 5 μM): 88.1 ± 2.7%; GPX4 inhibition rate ([2]; concentration not given): 90%; % Viability Persister ([7]; dose 0.5 μM): 127.75%; % Viability Persister + 2 μM Fer-1 ([7]; dose 0.5 μM): 110.75%; % Viability Persister + 2 μM Fer-1 ([7]; dose 10.0 μM): 107.50%; % Viability Persister ([7]; dose 20.0 μM): 4.25%; % Viability Persister + 2 μM Fer-1 ([7]; dose 20.0 μM): 27.00%; aqueous solubility [5]: up to 1000 μM; Solubility ([5]; 1% DMSO, Phosphate Buffered Saline pH 7.4, 1 hour, ambient, UV/Vis absorbance): 22 µM (≈ 10.2 µg/mL); ferroptosis induction / potency in SU-DHL-6 cells, result in words [8]: a potency that is similar to RSL3 |
| CC(C)(COC(=O)CCl)NC(=O)c1nn(Cc2cc(Cl)cc(Cl)c2)c2cc(-c3ccc(N4CCOCC4)c(Cl)c3)ccc12 [QW-852] | – | – | – | – | – | – | – | – | – | increase in lipid-ROS which can be attenuated by ferrostatin-1 | – | greater potency and selectivity to DTP cells | 48.00 | 3.25 | – | Selectivity^a (fold) [9]: 6 fold; IC50 ([9]; 24 h, read-out: IC50): 1.37 µM; IC50 [9, 15]: 7.9 µM; GPX4 inhibitory activity, result in words [2]: greater GPX4 inhibitory activity than QW-446 at 2.5 μM concentration; GPX4% inhibition at 2.5 μM ([2]; 4th generation): 88.2 ± 13.3%; % Viability Persister + 2 μM Fer-1 ([7]; dose 1.0 μM): 93.75%; Selectivity^a (fold) [10]: >1000 fold; IC50 [10, 15]: 1.58 µM; Selectivity^a (fold) [8]: 269 fold; IC50 ([8]; 24 h, read-out: IC50): 0.019 µM; IC50 [8, 15]: 5110 µM |
| COC(=O)c1ccc([C@@H]2c3[nH]c4ccccc4c3C[C@@H](C(=O)OC)N2C(=O)CCl)cc1 [RSL3, reference compound] | – | 0.6 | 34.4 | – | – | – | 2.4 | 26 (≈ 11.5 µg/mL) | 14 | – | – | – | 6.00 | – | 7.6 | Selectivity^a (fold) [9]: >1000 fold; IC50 ([9]; 24 h, read-out: IC50): 0.16 µM; IC50 [9, 15]: 316 µM; GPX4% inhibition at 200 (μM) ([2]; 200 μM, mean ± s.d., n = 3): 112.5 ± 6.5%; Selectivity^a (fold) [10]: 5 fold; IC50 ([10]; 24 h, read-out: IC50): 0.4 µM; IC50 [10, 15]: 2.15 µM; Selectivity^a (fold) [8]: 71 fold; IC50 ([8]; 24 h, read-out: IC50): 0.019 µM; IC50 [8, 15]: 1.35 µM; IC50 ([3]; compounds alone, Table 7, read-out: IC50 (uM) Huh7^a): 0.6 µM; IC50 ([3]; with fer-1, Table 7, read-out: IC50 (uM) Huh7^b): 34.4 µM |
